Reference: PubChem BioAssay (NCI)
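Interpolation was linear, between the two tested concentrations surrounding the appropriate level; five concentrations were tested over 48 hours in 96-well plates. TGI: total growth inhibition.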

Key:
Assay in all cases: NCI tumour cell line growth inhibition, 48 h
M14 melanoma = test system: M14 melanoma
K-562 leukemia = test system: K-562 leukemia
U251 CNS = test system: U251 CNS
SK-MEL-5 melanoma = test system: SK-MEL-5 melanoma
UACC-62 melanoma = test system: UACC-62 melanoma
ACHN renal = test system: ACHN renal
MDA-MB-435 = test system: MDA-MB-435
A498 renal = test system: A498 renal
MOLT-4 leukemia = test system: MOLT-4 leukemia
SNB-19 CNS = test system: SNB-19 CNS
IGROV1 ovarian = test system: IGROV1 ovarian
OVCAR-5 ovarian = test system: OVCAR-5 ovarian
NCI-H23 lung = test system: NCI-H23 lung

Compound	TGI (M14 melanoma) [µM]	TGI (K-562 leukemia) [µM]	TGI (U251 CNS) [µM]	TGI (SK-MEL-5 melanoma) [µM]	TGI (UACC-62 melanoma) [µM]	TGI (ACHN renal) [µM]	TGI (MDA-MB-435) [µM]	TGI (A498 renal) [µM]	TGI (MOLT-4 leukemia) [µM]	TGI (SNB-19 CNS) [µM]	TGI (IGROV1 ovarian) [µM]	TGI (OVCAR-5 ovarian) [µM]	TGI (NCI-H23 lung) [µM]
CCNc1nnc(-c2ccccc2Nc2ccccc2-c2nnc(NCC)s2)s1	40	> 100	> 55.4	25.6	35.3	31	71.4	91	> 78.3	> 100	> 100	48.5	73.3
O=C1[C@@H](O)[C@@H]2CCCC[C@@]23CCCN13	> 100	> 100	> 100	> 100	> 100	> 100	> 100	> 100	> 100	> 100	> 100	> 100	> 100
COc1ccc(-c2nc3c(C(=O)NCCN(C)C)cccc3c3ccccc23)cc1	3.93	4.68	10.1	3.3	4.66	12.8	5.16	8.96	6.55	11.7	14.6	18.2	19.6
CC1=N[C@@](C)(C2CC3C=CC2C3=O)COC1=O (stereo not given in full)	> 100	> 100	> 100	> 100	> 100	> 100	> 100	> 100	> 100	> 100	> 100	> 100	> 100
OCC1CCCC1O (stereo not given)	> 100	> 100	> 100	> 100	> 100	> 100	> 100	> 100	> 100	> 100	> 100	> 100	> 100
CN(C)c1ccc(/C=C(\NC(=O)c2ccccc2)C(=O)Nc2cccc(C(=O)NCCCO)c2)cc1	> 100	> 100	> 100	> 100	> 100	> 100	> 100	> 100	> 100	> 100	> 100	> 100	> 100
CC(=O)NC1COC(COC(=O)CCCCCCCCCCNC(=O)c2ccc([N+](=O)[O-])c3c(=O)c4ccccc4[nH]c23)C(O)C1OC(C)C(=O)NC(C(=O)NC(CCC(N)=O)C(=O)OCc1ccccc1)C(C)C (stereo not given)	66.3	54.2	27.9	57.9	58.9	39.4	> 100	47.7	61.3	18.5	18.3	> 81.5	27.3
O=[N+]([O-])C(/C=C(\Cl)[N+](=O)[O-])=C(N1CCCCC1)N1CCCCC1	57	66.9	> 100	46.5	60.8	> 100	30.6	93.3	> 100	> 100	61.1	> 100	> 100
CC(C)(C)n1c(=O)n2n(c1=O)C1c3cccc4cccc(c34)C2C2c3cccc4cccc(c34)C1n1c(=O)n(C(C)(C)C)c(=O)n12	> 100	> 100	> 100	> 100	> 100	> 100	> 100	> 100	> 100	> 100	> 100	> 100	> 100
CC1=CC(=O)N(n2c(Cc3ccc(Cl)cc3)n[nH]c2=O)C1=O	> 100	72.2	> 100	> 100	45.4	> 100	> 100	> 100	47.4	> 100	> 100	> 100	> 100
Cc1cc2c(cc1Cl)SC(NNC1=NCCN1)=NS2(=O)=O	> 10	> 10	> 10	> 10	> 10	> 10	> 10	> 10	> 10	> 10	> 10	> 10	> 10
O=S(=O)(CCC[C@H]1[C@@H](CCOCc2ccccc2)C2CCCN1O2)c1ccccc1 (stereo not given in full)	> 100	> 100	> 100	> 100	> 100	> 100	> 100	> 100	> 100	> 100	> 100	> 100	> 100
Cc1cccc(C)c1N=Nc1ccc(O)c(CN(C)C)c1	58.1	> 100	> 100	25.2	64.6	> 100	> 100	> 100	> 100	> 100	> 100	> 100	> 100
CC(C)(C)[Si](C)(C)OCC1OC(n2ccc(=O)[nH]c2=O)C(O[Si](C)(C)C(C)(C)C)[C@]12O[C@@H]2CO (stereo not given in full)	43.2	> 100	42.6	34.7	36.8	24.2	35.3	38.7	46.3	24	33.1	40.6	30.2
O=C1C=C(c2ccccc2)O/C1=C\C(=O)c1ccc(Cl)cc1	41.5	73	29.9	91.9	30.4	29.7	29.8	> 100	> 100	> 100	35.8	88	65.8
